{"source": "patent US20050130902A1", "about": "“Peptide compounds for counteracting reactive oxygen species and free radicals” (priority 2001, published 2005)", "key": {"SOD [1]": {"tested_on": "SOD", "experiment": "SOD level in brain of old C57 Black mice, 30 days daily oral gavage", "type": "in vivo", "conditions": "18-month old mice", "procedure": "As a further examination of the dose-response effect on upregulating SOD in “old” adult C57 Black mice, young and old animals were divided into the following treatment groups (n=3): • Animals 1-3: Young, 4-month old mice, untreated • Animals 4-6: Old, 18-month old mice, untreated • Animals 7-9: Old, 18-month old mice treated daily by oral gavage 0.33 mg/kg of PEP-1 • Animals 10-1 2: Old, 18-month old mice treated daily by oral gavage 3.3 mg/kg of PEP-1\nAt the end of 30 days, all animals were sacrificed and their brains were harvested. SOD level was analyzed by Western immunoblot. A SOD standard (“M”) was also run alongside the samples. The SOD levels were quantitated by densitometry measurements of the immunoblot."}, "CAT": {"tested_on": "CAT", "experiment": "In vivo CAT upregulation in rat brain and heart after iv injection (Western immunoblot)", "design": "species or system Sprague-Dawley rats", "conditions": "1.2 mg/kg iv, 6 hours post injection", "procedure": "(§1) In vivo experiments were carried out in Sprague-Dawley rats (300-325 g) with solutions of peptide compounds PEP-1 and PEP-3. The animals were injected intravenously (iv) via the tail vein with a peptide compound. Each animal received one injection of peptide compound in normal saline at total dose equivalent of 1.2 or 2.4 mg peptide compound/kg body weight. The animals were sacrificed by decapitation at 6 hours post injection and dissected to isolate brain and heart organs, which were frozen at −70° C. for subsequent analysis by Western immunoblots.\n(§2) Each tissue was thawed and homogenized in a Down's homogenizer using ten volumes of homogenizer buffer (see, Adams et al., […], 77: 221-233 (2000); buffer as described in Adams et al., J. Leukoc. Biol., 62: 865-875 […]) to obtain a crude cytoplasmic fraction. The tissue homogenates were centrifuged (14,000×g for 5 minutes at 4° C.) to yield the supernatant purified cytoplasmic protein fractions for Western immunoblot analysis as described in Adams et al. (J. Cell. Biochem., 77: 221-233 (2000)). A 10 μg sample of each protein fraction was then separated by SDS polyacrylamide gel electrophoresis (SDS-PAGE) and analyzed for SOD and CAT content by Western blot assay as above.\n(§3) Controls for measurement of unstimulated levels of SOD were obtained from two vehicle-only (i.e., no peptide compound), injected rats that were sacrificed at 6 hours post injection. Both had essentially the same unstimulated level of SOD. Standard quantities of each cytoplasmic fraction (10 μg) were loaded on a lane of a gel for electrophoretic separation and Western immunoblot analysis (Adams et al., J. Cell. Biochem., 77: 221-233 (2000)). The stained gels were photographed and scanned by laser densitometry to quantify intensities in comparison to enzyme levels for control vehicle treated rats."}, "[2]": {"experiment": "Survival (longevity) of old C57 Black mice over 70-day treatment", "type": "in vivo", "conditions": "old 16-month mice", "text": "This study was designed to examine the in vivo effect of daily administration of a representative peptide compound, PEP-1, to reverse age-related declines in spontaneous behavioral arousal as measured by effect on locomotor activity and longevity of “old” adult individuals. In this study, C57 Black mice were divided into the following treatment groups (n=10 per group): • Group 1: Young, 4-month old mice, untreated • Group 2: Old, 16-month old mice, untreated • Group 3: Old, 16-month old mice treated daily by oral gavage with 0.025 mg/kg of PEP-1\nGroup 4: Old, 16-month old mice treated daily by oral gavage with 0.075 mg/kg of PEP-1 • Group 5: Old, 16-month old mice treated daily by oral gavage with 0.25 mg/kg of PEP-1 • Group 6: Old, 16-month old mice treated daily by oral gavage with 0.75 mg/kg of PEP-1 • Group 7: Old, 16-month old mice treated daily by oral gavage with 2.5 mg/kg of PEP-1\nAt the end of a 70-day treatment period, all of the young, untreated mice (Group 1) were alive (i.e., to an age of 6.5 months), but 3 of the 10 untreated old mice (Group 2) had died. Also, 2 animals in each of Groups 3 and 4 died during this same period."}, "SOD [3]": {"tested_on": "SOD", "experiment": "SOD level in brain of old C57 Black mice, 14 days oral gavage on various schedules", "type": "in vivo", "conditions": "18-month old mice", "procedure": "Adult 18-month old C57 Black mice (“old mice”) were treated with 0.25 mg/kg of PEP-1 by oral gavage for a period of 14 days. The animals belonged to the following 5 treatment groups (n=3 per group): • Group 1: Control, untreated • Group 2: Treatment once per week • Group 3: Treatment twice per week • Group 4: Treatment every other day • Group 5: Daily treatment\nAt the end of 14 days, all animals were sacrificed and their brains were harvested and the SOD level was analyzed by Western immunoblot as described above. A SOD standard (“M”) was also run alongside the samples. The SOD levels were quantitated by densitometry measurements of the blot."}, "[4]": {"experiment": "Locomotor activity test (spontaneous behavioral arousal) in old C57 Black mice", "type": "in vivo", "procedure": "Six weeks after assignment of the doses, surviving animals were examined in a standard locomotor activity test used to detect evidence of a reversal of age-related declines in spontaneous behavioral arousal (Forster et al., 1996; Dubey et al., Arch. Biochem. Biophys., 333: 189-197 (1996)). Arousal levels were measured using a Digiscan apparatus (Omnitech, model RXYZCM, Omnitech Electronics, Columbus, Ohio, USA). Each mouse was placed in a clear acrylic chamber (40.5 cm×40.5 cm×30.5 cm) for a […] session. The acrylic chamber was placed in a metal frame lined with arrays of photocells. A wooden cabinet with sheets of insulation enclosed the acrylic chamber and the metal frame. Fans provided an 80-db ambient noise level within the chamber. Movements of the mouse within the horizontal plane interrupted the photobeams, which were automatically recorded by a computer within 1-minute time samples. The measure used in this study was the average horizontal photobeam interruptions per minute, over a 16-minute testing session (horizontal counts/min).\nThe locomotor activity test was performed on blinded Groups 1, 2, 3, 4, 5, and 6, (young untreated control, old untreated control, old treated with PEP-1 at 0.025 mg/kg 0.075 mg/kg, 0.25 mg/kg, and 0.75 mg/kg, respectively) six weeks after assignment of the doses. A significant difference between the young and old untreated control groups was found (p<0.05), verifying previous findings of the age-associated decrease in spontaneous behavioral arousal."}, "SOD [5]": {"tested_on": "SOD", "experiment": "In vivo SOD upregulation in rat brain and heart after iv injection (Western immunoblot)", "design": "species or system Sprague-Dawley rats", "conditions": "1.2 mg/kg iv, 6 hours post injection", "procedure": "as §1, §2, §3"}, "SOD-1": {"tested_on": "SOD-1", "experiment": "PEP-2-dependent upregulation of SOD-1 in rat cortical cell cultures (Western immunoblot, densitometry)", "type": "cell-based", "conditions": "5 hours, rat brain cortical cells, vs vehicle control", "procedure": "Primary cortical cultures were obtained by growing newborn rat brain cortical cells in Delbecco's modified Eagle medium supplemented with 100 units/ml of penicillin G, 100 μg/ml of streptomycin, and 10% fetal calf serum. The cells were isolated from the E-21 cortex of rat brain, plated at a density of 1×10^5 per ml and grown to confluence within four to five days in an atmosphere containing air and 5% CO2 at 37° C. as described in Cornell-Bell et al., Science, 247: 470473 (1990) and Cell Calcium, 12: 185-204 (1991). Cultures were grown in 20 ml flasks as a monolayer and then exposed to various concentrations of peptide for studies of the effects of PEP-2 on upregulation of the gene for SOD. Cultures of the rat brain cortical cells were incubated with 1 ng/ml, 10 ng/ml, and 100 ng/ml of peptide compound PEP-2 for durations of 5 hours. Control cultures were treated in the same manner, but were not incubated with PEP-2.\nCytoplasmic proteins were isolated according to published methods (Adams et al., J. Leukoc. Biol. 62: 865-873 (1997)). The cell cultures were washed once in phosphate buffer saline (PBS) containing 20 mM EDTA and then suspended in 250 μl of freshly prepared lysis buffer (20 mM Hepes, pH 7.9, 10 mM KCl, 300 mM NaCl, 1 mM MgCl2, 0.1% Triton X-100 nonionic detergent, 20% glycerol, 0.5 mM dithiothreitol (DTT), freshly supplemented with inhibitors as described in Adams et al., J. Biol. Chem., 77: 221-233 (2000)). The suspensions were then incubated for at least 10 minutes on ice to lyse cells and then centrifuged (14,000×g for 5 minutes at 4° C.) to pellet cell debris. The supernatant cytoplasmic fractions were removed and stored as aliquots at −80° C. for analysis. […]\nThe cytoplasmic proteins were separated by SDS-PAGE using 5 μg/lane on the gels for analysis by Western immunoblots. […] SOD expression was detected in the Western blots using anti-SOD rabbit polyclonal antibody (Rockland, Inc., Gilbertville, Pa.). The Western blots were also analyzed by laser densitometry to quantify SOD protein upregulation. […]"}}, "note": "Values joined by “and” are separate entries in the source; they are usually repeats but may differ in a detail not shown here. Equal values may be shown once. No end group written: not given here.", "data": [{"substance": "[Ac] Asp Gly Glu Ala (Ac-DGEA) [PEP-1]", "values": [{"measurement": "increase in SOD level compared to untreated old control", "setting": "SOD [1]; 0.33 mg/kg oral daily", "value": 2.9, "unit": "fold"}, {"measurement": "level of SOD expression in brain tissue compared to untreated old control", "setting": "SOD [1]; 3.3 mg/kg oral daily", "value": 4.8, "unit": "fold"}, {"measurement": "SOD-related breakdown fragments", "setting": "SOD [1]; brain, 0.33 or 3.3 mg/kg oral daily", "value": "no change"}, {"measurement": "CAT (Fold increase)", "setting": "CAT; rat brain", "value": 1.0, "unit": "fold"}, {"measurement": "CAT (Fold increase)", "setting": "CAT; rat heart", "value": 1.1, "unit": "fold"}, {"measurement": "animals that died during 70-day treatment period", "setting": "[2]; 0.025 mg/kg daily oral gavage, n=10 (Group 3)", "value": 2, "unit": "animals"}, {"measurement": "animals that died during 70-day treatment period", "setting": "[2]; 0.075 mg/kg daily oral gavage, n=10 (Group 4)", "value": 2, "unit": "animals"}, {"measurement": "survival over 70-day treatment period", "setting": "[2]; 0.25 mg/kg daily oral gavage, n=10 (Group 5)", "value": "all of the old mice treated with PEP-1 survived"}, {"measurement": "survival over 70-day treatment period", "setting": "[2]; 0.75 mg/kg daily oral gavage, n=10 (Group 6)", "value": "all of the old mice treated with PEP-1 survived"}, {"measurement": "survival over 70-day treatment period", "setting": "[2]; 2.5 mg/kg daily oral gavage, n=10 (Group 7)", "value": "all of the old mice treated with PEP-1 survived"}, {"measurement": "SOD level elevation compared to control group", "setting": "SOD [3]; 0.25 mg/kg oral gavage daily", "value": "over 4.5 fold"}, {"measurement": "SOD level elevation compared to control group", "setting": "SOD [3]; 0.25 mg/kg oral gavage every other day", "value": "over 4.5 fold"}, {"measurement": "increase in SOD level compared to control group", "setting": "SOD [3]; 0.25 mg/kg oral gavage twice per week", "value": 2.3, "unit": "fold"}, {"measurement": "horizontal locomotor activity (horizontal counts/min)", "setting": "[4]; 0.025 mg/kg daily oral, six weeks (Group 3)", "value": "failed to differ significantly from the old controls"}, {"measurement": "horizontal locomotor activity (horizontal counts/min)", "setting": "[4]; 0.075 mg/kg daily oral, six weeks (Group 4)", "value": "higher than that of the old controls"}, {"measurement": "horizontal locomotor activity (horizontal counts/min)", "setting": "[4]; 0.25 mg/kg daily oral, six weeks (Group 5)", "value": "higher than that of the old controls"}, {"measurement": "horizontal locomotor activity (horizontal counts/min)", "setting": "[4]; 0.75 mg/kg daily oral, six weeks (Group 6)", "value": "higher than that of the old controls"}, {"measurement": "SOD (Fold increase)", "setting": "SOD [5]; rat brain", "value": 1.0, "unit": "fold"}, {"measurement": "SOD (Fold increase)", "setting": "SOD [5]; rat heart", "value": 1.0, "unit": "fold"}]}, {"substance": "[Ac] Asp Gly Glu Ala Leu (Ac-DGEAL) [PEP-2]", "values": [{"measurement": "Fold-Increase in SOD Expression", "setting": "SOD-1; 1 ng/ml", "value": "2 fold and 1.8 fold"}, {"measurement": "Fold-Increase in SOD Expression", "setting": "SOD-1; 10 ng/ml", "value": 1.9, "unit": "fold"}, {"measurement": "Fold-Increase in SOD Expression", "setting": "SOD-1; 100 ng/ml", "value": 2.1, "unit": "fold"}]}, {"substance": "[Ac] Asp Gly Leu Glu Ala (Ac-DGLEA) [PEP-3]", "values": [{"measurement": "CAT (Fold increase)", "setting": "CAT; rat brain", "value": 1.0, "unit": "fold"}, {"measurement": "CAT (Fold increase)", "setting": "CAT; rat heart", "value": 1.0, "unit": "fold"}, {"measurement": "SOD (Fold increase)", "setting": "SOD [5]; rat brain", "value": 1.0, "unit": "fold"}, {"measurement": "SOD (Fold increase)", "setting": "SOD [5]; rat heart", "value": 1.2, "unit": "fold"}]}]}
